Results on eight molecules are retold here after US9447078B2, “Substituted heterocyclic compounds for disease treatment” (Acucela Inc., priority 2012, dated 2016).

The target of the assay is T1, isomerase (Mus musculus, UniProt Q91ZQ5).
T1 construct: from tissue; host or cells: eyes of living CD-1 (and Balb/c) mice, endogenous protein
T1 sequence (Q91ZQ5 1-533): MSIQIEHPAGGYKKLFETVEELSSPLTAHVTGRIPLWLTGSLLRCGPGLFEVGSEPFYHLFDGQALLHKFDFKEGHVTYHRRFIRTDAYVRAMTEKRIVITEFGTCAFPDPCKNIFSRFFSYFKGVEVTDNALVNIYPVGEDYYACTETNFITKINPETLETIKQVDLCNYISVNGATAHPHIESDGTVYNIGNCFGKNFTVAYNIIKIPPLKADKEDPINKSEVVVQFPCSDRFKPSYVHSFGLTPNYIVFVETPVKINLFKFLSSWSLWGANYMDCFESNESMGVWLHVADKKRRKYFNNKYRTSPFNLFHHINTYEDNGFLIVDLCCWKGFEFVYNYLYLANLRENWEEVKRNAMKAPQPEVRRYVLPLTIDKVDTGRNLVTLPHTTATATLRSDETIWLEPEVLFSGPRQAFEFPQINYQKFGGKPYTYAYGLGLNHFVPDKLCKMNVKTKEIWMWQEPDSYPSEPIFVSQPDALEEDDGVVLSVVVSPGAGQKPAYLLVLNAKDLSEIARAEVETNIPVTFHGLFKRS
In words: In vivo murine isomerase assay (recovery of 11-cis-retinal after photobleaching). The note with it: po, mice, oral gavage. On the procedure:
The capability of compounds described herein to inhibit isomerase was determined by an in vivo murine isomerase assay. Brief exposure of the eye to intense light (“photobleaching” of the visual pigment or simply “bleaching”) is known to photo-isomerize almost all 11-cis-retinal in the retina. The recovery of 11-cis-retinal after bleaching was used to estimate the activity of isomerase in vivo. Delayed recovery, as represented by lower 11-cis-retinal oxime levels, indicates inhibition of isomerization reaction. Procedures were performed essentially as described by Golczak et al., Proc. Natl. Acad. Sci. USA 102:8162-67 (2005). See also Deigner et al., Science, 244: 968-71 (1989); Gollapalli et al., Biochim Biophys Acta. 1651: 93-101 (2003); Parish, et al., Proc. Natl. Acad. Sci. USA, 14609-13 (1998); Radu, et al., Proc Natl Acad Sci USA 101: 5928-33 (2004).
Six-week old dark-adapted CD-1 (albino) male mice were orally gavaged with compound (0.03-3 mg/kg) dissolved in 100 μl corn oil containing 10% ethanol (five animals per group). After 2-24 hours in the dark, the mice were exposed to photobleaching of 5,000 lux of white light for 10 minutes. The mice were allowed to recover 2 hours in the dark. The animals were then sacrificed by carbon dioxide inhalation. Retinoids were extracted from the eye and the regeneration of 11-cis-retinal was assessed at various time intervals.
All steps were performed in darkness with minimal redlight illumination (low light darkroom lights and red-filtered flashlights for spot illumination as needed) (see, e.g., Maeda et al., J. Neurochem 85:944-956, 2003; Van Hooser et al., J Biol Chem 277:19173-82, 2002). After the mice were sacrificed, the eyes were immediately removed and placed in liquid nitrogen for storage.
The eyes were placed in 500 μL of bis-tris propane buffer (10 mM, pH ˜7.3) and 20 μL of 0.8M hydroxile amine (pH˜7.3). The eyes were cut up into small pieces with small iris scissors and then thoroughly homogenized at 30000 rpm with a mechanical homogenizer (Polytron PT 1300 D) in the tube until no visible tissue remained. 500 μL of methanol and 500 μL of heptane were added to each tube. The tubes were attached to a vortexer so that the contents were mixed thoroughly for 15 minutes in room temperature. The organic phase was separated from the aqueous phase by centrifugation for 10 min at 13K rpm, 4° C. 240 μL of the solution from the top layer (organic phase) was removed and transferred to clean 300 μl glass inserts in HPLC vials using glass pipette and the vials were crimped shut tightly.
The samples were analyzed on an Agilent 1100 HPLC system with normal phase column: SILICA (Beckman Coutlier, dp 5 μm, […]). […] Loading volume for each sample was 100 μl; detection wavelength is 360 nm. The area under the curve for 11-cis retinal oxime was calculated by Agilent Chemstation software and was recorded manually. Data processing was performed using Prizm software.
Positive control mice (no compound administered) were sacrificed fully dark-adapted and the eye retinoids analyzed. Light (bleached) control mice (no compound administered) were sacrificed and retinoids isolated and analyzed immediately after light treatment.
A time course study was performed to determine the isomerase inhibitory activity of the test compound. Male Balb/c mice (4/group) receive test compound orally by gavage. The animals were then “photo-bleached” (5000 Lux white light for 10 minutes) at 2, 4, 8, 16 and 24 hours after dosing, and returned to darkness to allow recovery of the 11-cis-retinal content of the eyes. Mice were sacrificed 2 hours after bleaching, eyes were enucleated, and retinoid content was analyzed by HPLC.
Recovery control mice (vehicle-only treated) were light-treated and left to recover for 2 hours in the dark before sacrifice and analysis. Light control mice (vehicle only treated) were sacrificed for analysis immediately after photo-bleaching.

As for `NCCC(O)c1ccc(OCC2CCCCC2)s1` (centres unmarked) [Example 1, 3-Amino-1-(5-(cyclohexylmethoxy)thiophen-2-yl)propan-1-ol], the inhibition at 1 mg/kg turned out to be 0% (Time 2 hour) and 0% (Time 4 hour).

In turn, `CCCC(CCC)COc1cccc([C@H](O)CCN)n1` [Example 19, (R)-3-Amino-1-(6-((2-propylpentyl)oxy)pyridin-2-yl)propan-1-ol] registered an inhibition at 1 mg/kg (Time 4 hour) of 98.2 ± 2.3% and an inhibition at 1 mg/kg (Time 8 hour) of 90.7 ± 3.3%.

As for `NCCC(O)c1cccc(CCC2CCCCC2)n1` (centres unmarked) [Example 4, 3-Amino-1-(6-(2-cyclohexylethyl)pyridin-2-yl)propan-1-ol], the inhibition at 1 mg/kg (Time 2 hour) came out at 29.3 ± 4.3%.

On to `NCCC(O)c1cc(C#CC2(O)CCCCC2)cs1` (centres unmarked) [Example 9, 1-((5-(3-Amino-1-hydroxypropyl)thiophen-3-yl)ethynyl)cyclohexanol], for which the inhibition at 1 mg/kg (Time 2 hour) stood at 8.6 ± 4.2%.

Molecule `NCCC(O)c1cc(OCC2CCCCC2)ccn1` (centres unmarked) [Example 12, 3-Amino-1-(4-(cyclohexylmethoxy)pyridin-2-yl)propan-1-ol] returned an inhibition at 1 mg/kg (Time 2 hour) of 0%.

Where the note is “Time 2 hour”, `NCC[C@@H](O)c1ccc(OCC2CCCCC2)s1` [Example 5, (R)-3-Amino-1-(5-(cyclohexylmethoxy)thiophen-2-yl)propan-1-ol] came in with an inhibition at 1 mg/kg of 0%.

In turn, `NCCC(O)c1cccc(/C=C/C2CCCCC2)n1` (centres unmarked) [Example 3, (E)-3-Amino-1-(6-(2-cyclohexylvinyl)pyridin-2-yl)propan-1-ol] showed an inhibition at 1 mg/kg (Time 2 hour) of 0%.

Regarding `NCC[C@@H](O)c1cccc(OCC2CCCCC2)n1` [Example 6, (R)-3-Amino-1-(6-(cyclohexylmethoxy)pyridin-2-yl)propan-1-ol], the inhibition at 1 mg/kg was 68.9 ± 6.5% (Time 2 hour) and 37.7 ± 14.9% (Time 4 hour). The molecule further returned an inhibition at 3 mg/kg (Time 2 hour) of 93.2 ± 0.9%; an inhibition at 3 mg/kg (Time 4 hour) of 85.5 ± 2.9%; an inhibition at 3 mg/kg (Time 6 hour) of 62.3 ± 3.8%; an inhibition at 3 mg/kg (Time 8 hour) of 30.8 ± 9.9%; an inhibition at 3 mg/kg (Time 16 hour) of 0%; an inhibition at 3 mg/kg (Time 24 hour) of 0%.

The term inhibition denotes the change of the read-out against control, counted positive when it falls. The low end stands for little suppression, the high end for strong suppression.
